SMILES strings stand for the structures.

Chain of HPK1 (Q92918 whole entry): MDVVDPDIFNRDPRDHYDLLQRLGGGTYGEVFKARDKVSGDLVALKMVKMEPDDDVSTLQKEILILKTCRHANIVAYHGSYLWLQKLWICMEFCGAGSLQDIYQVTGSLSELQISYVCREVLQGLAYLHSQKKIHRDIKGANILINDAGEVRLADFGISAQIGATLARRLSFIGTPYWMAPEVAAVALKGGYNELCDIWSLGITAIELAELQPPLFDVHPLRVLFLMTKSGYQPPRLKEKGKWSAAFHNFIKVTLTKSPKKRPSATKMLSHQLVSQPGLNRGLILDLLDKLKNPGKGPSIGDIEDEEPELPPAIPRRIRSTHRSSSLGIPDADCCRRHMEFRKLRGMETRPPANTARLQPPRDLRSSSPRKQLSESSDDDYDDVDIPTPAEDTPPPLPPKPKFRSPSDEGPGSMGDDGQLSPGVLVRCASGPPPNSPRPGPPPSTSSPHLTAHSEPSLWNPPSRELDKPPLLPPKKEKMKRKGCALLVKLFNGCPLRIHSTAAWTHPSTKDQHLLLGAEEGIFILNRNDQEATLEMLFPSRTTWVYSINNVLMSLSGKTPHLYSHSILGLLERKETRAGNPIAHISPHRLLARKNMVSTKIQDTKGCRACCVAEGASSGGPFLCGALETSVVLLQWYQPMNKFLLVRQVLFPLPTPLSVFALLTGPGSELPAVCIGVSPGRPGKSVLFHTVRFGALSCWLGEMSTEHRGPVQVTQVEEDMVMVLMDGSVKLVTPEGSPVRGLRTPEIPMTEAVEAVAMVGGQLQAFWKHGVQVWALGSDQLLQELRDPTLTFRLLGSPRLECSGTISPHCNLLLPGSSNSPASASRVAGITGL

The target in this assay is HPK1 (Homo sapiens (Human), UniProt Q92918). The assay is described as follows: HPK1 biochemical enzyme assay (microfluidic mobility shift assay). The settings on record: 1.5 nM HPK1, ATP 1 mM final, 30 min preincubation, 60 min at RT, Caliper EZ Reader; read-out: HPK1 1000UMATP caliper IC50. The method, then:
HPK1 biochemical enzyme assay: HPK1 enzyme inhibition was measured using a microfluidic mobility shift assay. […] Test compounds were titrated in ten point curves (top final assay concentration 3 μM), and preincubated with enzyme/substrate mix for 30 min prior to initiation of the reaction by addition of ATP (1 mM final concentration) and substrate (1 μM final concentration; Carna Biosciences) diluted in assay buffer supplemented by MgCl2 (final assay concentration of 5 mM). Following 60 min incubation at RT, the reaction was terminated by addition of 60 µl/well termination buffer (Carna Biosciences) and signal determination using aCaliper EZ Reader (Perkin Elmer, UK).
The compound numbers correspond to the compound numbers in Table 1.
By IC50 is commonly meant the midpoint of a concentration-inhibition curve. Consider `O=C1NCc2c(-c3cnc4cc(F)ccn34)ccc(Nc3ccc(C4(O)CCOCC4)cn3)c21` [I-371, 4-(7-fluoroimidazo [1,2-a]pyridin-3-yl)-7-((5-(4-hydroxtetra-hydro-2H-pyran-4-yl)pyridin-2-yl)amino)isoin-dolin-1-one], for which the half-inhibitory concentration (IC50) is less than 100 nM.

`N#Cc1ccn2c(-c3ccc(Nc4ccc(N5CCC(O)CC5)cn4)c4c3CNC4=O)cnc2c1` [I-182, 3-[7-[[5-(4-hydroxy-1-piperidyl)-2-pyridyl]amino]-1-oxo-isoindolin-4-yl]imidazo[1,2-a]pyridine-7-carbonitrile]: the IC50 was less than 100 nM.

Consider `CN1CCN(c2ccc(Nc3ccc(-c4cnc5ccccn45)c4c3C(=O)NC4)nc2)CC1` [I-39, 4-(imidazo[1,2-a]pyridin-3-yl)-7-((5-(4-methylpiperazin-1-yl)pyridin-2-yl)amino)isoindolin-1-one], for which the IC50 was less than 100 nM.

As for `O=C1NCc2c(-c3cnc4cnccn34)ccc(Nc3ccc(N4CC[C@H](F)[C@@H](O)C4)cn3)c21` [I-435, 7-((5-((3S,4S)-4-fluoro-3-hydroxypiperidin-1-yl)pyridin-2-yl)amino)-4-(imidazo[1,2-a]pyrazin-3-yl)isoindolin-1-one], the IC50 is less than 100 nM.

In the case of `CN(C)Cc1cc(Nc2ccc(-c3cnc4cc(Cl)ccn34)c3c2C(=O)NC3)ncc1C1(O)CCOCC1` [I-633, 4-(7-chloroimidazo [1,2-a]pyridin-3-yl)-7-((4-((dimethylamino)-methyl)-5-(4-hydroxytetra-hydro-2H-pyran-4-yl)pyridin-2-yl)amino)isoin-dolin-1-one], the IC50 was less than 100 nM.

With `Cc1ccn2c(-c3ncc(Nc4ccc(N5CCN(C)CC5)cn4)c4c3CNC4=O)cnc2c1` [I-73, 4-(7-methylimidazo [1,2-a]pyridin-3-yl)-7-[[5-(4-methylpiperazin-1-yl)-2-pyridyl]-amino]-2,3-dihydropyrrolo [3,4-c]pyridin-1-], the IC50 is less than 100 nM.

`O=C1NCc2c(-c3cnc4n3CCOC4)ccc(Nc3ccc(N4CCC(O)CC4)cn3)c21` [I-143]: the IC50 is less than 100 nM.

Consider `O=C1NCc2c(-c3cnc4cc(F)ccn34)ccc(Nc3ccc([C@H]4CCOC4)c(CN4CCC4)n3)c21` [I-755, (R)-7-((6-(azetidin-1-ylmethyl)-5-(tetrahydrofuran-3-yl)pyridin-2-yl)amino)-4-(7-fluoroimidazo [1,2-a]pyridin-3-yl)isoindolin-1-one], for which the 50% inhibitory concentration (IC50) is less than 100 nM.

Consider `COc1cc(N2CCC(O)CC2)cnc1Nc1ccc(-c2ccnc3c2ccn3C)c2c1C(=O)NC2` [I-267, 7-((5-(4-hydroxy-piperidin-1-yl)-3-methoxypyridin-2-yl)amino)-4-(1-methyl-1H-pyrrolo[2,3-b]pyridin-4-yl)isoindolin-1-one], for which the IC50 was more than 1000 nM.

Take `COC[C@H]1CN(c2ccc(Nc3ccc(-c4cnc5c(F)c(C)ccn45)c4c3C(=O)NC4)nc2)CCO1` [I-580, (R)-4-(8-fluoro-7-methylimidazo [1,2-a]pyridin-3-yl)-7-((5-(2-(methoxymeth-yl)morpho-lino)pyridin-2-yl)amino)isoin-dolin-1-one]: the IC50 was less than 100 nM.

Consider `Cn1ccc2c(-c3ccc(Nc4ccc(N5CC6(CC(O)C6)C5)cn4)c4c3CNC4=O)ccnc21` [I-297, 7-((5-(6-hydroxy-2-azaspiro[3,3]heptan-2-yl)pyridin-2-yl)amino)-4-(1-methyl-1H-pyrrolo[2,3-b]pyridin-4-yl)isoindolin-1-one], for which the IC50 is less than 100 nM.

On to `O=C1NCc2c(-c3cnc4cc(F)ccn34)ccc(Nc3ccc(N4CC[C@@H](F)[C@H](O)C4)cn3)c21` [I-347, 7-((5-((3R,4R)-4-fluoro-3-hydroxy-piperidin-1-yl)pyridin-2-yl)amino)-4-(7-fluoroimidazo [1,2-a]pyridin-3-yl)isoindolin-1-one], for which the half-inhibitory concentration (IC50) is less than 100 nM.

For the compound `O=C1NCc2c(-c3cnc4cnccn34)ccc(Nc3ccc(N4CCC[C@H](O)CC4)cn3)c21` [I-328, (S)-7-((5-(4-hydroxyazepan-1-yl)pyridin-2-yl)amino)-4-(imidazo[1,2-a]pyrazin-3-yl)isoindolin-1-one], the IC50 was less than 100 nM.

`O=C1NCc2c(-c3cnc4cc(F)ccn34)ccc(Nc3ccc(C4CCOC4)c(CN4CCCC4)n3)c21` (stereo not shown) [I-505, 4-(7-fluoroimidazo [1,2-a]pyridin-3-yl)-7-[[6-(pyrrolidin-1-ylmethyl)-5-tetrahydrofuran-3-yl-2-pyridyl]amino]isoindolin-1-one]: the IC50 was less than 100 nM.

For the compound `O=C1NCc2c(-c3cnc4cc(F)ccn34)ccc(Nc3ccc([C@H]4CCOC4)c(CN4CC[C@@H](O)C4)n3)c21` [I-783, 4-(7-f1uoroimidazo [1,2-a]pyridin-3-yl)-7-((6-(((R)-3-hydroxypyrrol-idin-1-yl)methyl)-5-((R)-tetrahydrofuran-3-yl)pyridin-2-yl)amino)isoin-dolin-1-one], the IC50 was less than 100 nM.

`Cc1cc2c(-c3ncc(Nc4ccc(N5CCC[C@H](C(C)(C)O)C5)cn4)c4c3CNC4=O)ccnc2n1C` [I-229]: the IC50 was less than 100 nM.

Turning to `O=C1NCc2c(-c3cnn4c3CCCC4)ncc(Nc3ccc(N4CCOCC4)cn3)c21` [I-367, 7-((5-morpholinopyridin-2-yl)amino)-4-(4,5,6,7-tetrahdropyra-zolo[1,5-a]pyridin-3-yl)-2,3-dihydro-1H-pyrrolo[3,4-c]pyridin-1-one], the half-inhibitory concentration (IC50) was less than 100 nM.

As for `Cc1ccn2c(-c3ccc(Nc4ccc(N5CCC(O)CC5)cn4)c4c3CNC4=O)cnc2c1C` [I-176, 4-(7,8-dimethylimi-dazo[1,2-a]pyridin-3-yl)-7-[[5-(4-hydroxy-1-piperidyl)-2-pyridyl]amino] isoindolin-1-one], the IC50 is less than 100 nM.

Consider `CN(C)Cc1nc(Nc2ccc(-c3cnc4cc(F)ccn34)c3c2C(=O)NC3)ccc1[C@@H]1CCCO1` [I-560, (S)-7-((6-((dimethylamino)-methyl)-5-(tetrahydrofuran-2-yl)pyridin-2-yl)amino)-4-(7-fluoroimidazo [1,2-a]pyridin-3-yl)isoindolin-1-one], for which the IC50 is less than 100 nM.

Regarding `COCC1(c2ccc(Nc3ccc(-c4cnc5cc(F)ccn45)c4c3C(=O)NC4)nc2CN(C)C)CCOCC1` [I-831], the 50% inhibitory concentration (IC50) is less than 100 nM.

For the compound `CN1CC(c2ccn3c(-c4ccc(Nc5ccc(N6CCC(O)CC6)cn5)c5c4CNC5=O)cnc3c2)C1` [I-411, 7-((5-(4-hydroxy-piperidin-1-yl)pyridin-2-yl)amino)-4-(7-(1-methylazetidin-3-yl)imidazo[1,2-a]pyridin-3-yl)isoindolin-1-one], the IC50 was less than 100 nM.

For the compound `O=C1NCc2c(-c3cnc4cc(F)ccn34)ccc(Nc3ccc([C@H]4CCOC4)c(CN4CCC(F)(F)C4)n3)c21` [I-717, (R)-7-((6-((3,3-difluoropyrro-lidin-1-yl)methyl)-5-(tetrahydrofuran-3-yl)pyridin-2-yl)amino)-4-(7-fluoroimidazo [1,2-a]pyridin-3-yl)isoindolin-1-one], the IC50 was less than 100 nM.

As for `CO[C@H]1CCN(Cc2nc(Nc3ccc(-c4cnc5cc(F)ccn45)c4c3C(=O)NC4)ccc2[C@H]2CCOC2)C1` (stereo in doubt) [I-789], the IC50 was less than 100 nM.

Turning to `Cn1ccc2c(-c3ccc(Nc4cc(C5CCNCC5)n[nH]4)c4c3CNC4=O)ccnc21` [I-115, 4-(1-methylpyrrolo [2,3-b]pyridin-4-yl)-7-[[3-(4-piperidyl)-1H-pyrazol-5-yl]amino]isoin-dolin-1-one], the IC50 was less than 100 nM.

As to `O=C1NCc2c(-c3cnn4ccccc34)ccc(Nc3ccc(N4CCC(O)CC4)cn3)c21` [I-131, 7-[[5-(4-hydroxy-1-piperidyl)-2-pyridyl]amino]-4-pyrazolo[1,5-a]pyridin-3-yl-isoindolin-1-one], the 50% inhibitory concentration (IC50) was less than 100 nM.

Take `COc1cc(Nc2ccc(-c3cnc4cc(F)ccn34)c3c2C(=O)NC3)ncc1N1CCC(O)CC1` [I-372, 4-(7-fluoroimidazo [1,2-a]pyridin-3-yl)-7-((5-(4-hydroxypipendin-1-yl)-4-methoxypyridin-2-yl)amino)isoin-dolin-1-one]: the IC50 was less than 100 nM.

Take `COCC1CN(c2ccc(Nc3ccc(-c4ncnc5c4ccn5C)c4c3C(=O)NC4)nc2)CCO1` (stereo in doubt) [I-650, (S)-7-((5-(2-(methoxymeth-yl)morpho-lino)pyridin-2-yl)amino)-4-(7-methyl-7H-pyrrolo[2,3-d|pyrimidin-4-yl)isoindolin-1-one]: the IC50 was less than 100 nM.

Turning to `CN1CCN(c2ccc(Nc3ccc(-c4ccnc5ccn(C)c45)c4c3C(=O)NC4)nc2)CC1` [I-66, 7-[[5-(4-methylpiperazin-1-yl)-2-pyridyl]amino]-4-(1-methylpyrrolo [3,2-b]pyridin-7-yl)isoindolin-1-one], the IC50 lay within 100 to 1000 nM.

Consider `CNC1CCN(c2ccc(Nc3ccc(-c4cnc5cccnn45)c4c3C(=O)NC4)nc2)CC1` [I-91, 4-imidazo[1,2-b]pyridazin-3-yl-7-[[5-[4-(methylamino)-1-piperidyl]-2-pyridyl]amino] isoindolin-1-one], for which the IC50 was less than 100 nM.

Consider `O=C1NCc2c(-c3ccnc4c3ccn4C(F)F)ccc(Nc3ccc(N4CCNCC4)cn3)c21` [I-119, 4-[l-(difluorometh-yl)pyrrolo[2,3-b]pyridin-4-yl]-7-[(5-piperazin-1-yl-2-pyridyl)amino] isoindolin-1-one], for which the IC50 was less than 100 nM.

On to `Cn1ccc2c(-c3ncc(Nc4ccc([C@H]5CCOC5)c(CN5CC[C@@H](O)C5)n4)c4c3CNC4=O)ccnc21` [I-810, 7-((6-(((R)-3-hydroxypyrroli-din-1-yl)methyl)-5-((R)-THF-3-yl)pyridin-2-yl)amino)-4-(1-methyl-1H-pyrrolo[2,3-b]pyridin-4-yl)-2,3-dihydro-1H-pyrrolo[3,4-c]pyridin-1-one], for which the IC50 was less than 100 nM.

The values are drawn from patent US11021481B2, “Substituted isoindolin-1-ones and 2,3-dihydro-1h-pyrrolo[3,4-c]pyridin-1-ones as HPK1 antagonists” (Nimbus Saturn, Inc., priority 2019, dated 2021).
